Reference: patent US20220089578A1, “COMPOUNDS AS GLP-1R AGONISTS” (Terns Pharmaceuticals, Inc., priority 2020, published 2022)

target: human GLP-1R (Homo sapiens, UniProt P43220); experiment: GLP-1R Cell Assay 1: cAMP Hunter CHO-K1 GLP1R Gs cell line, HitHunter cAMP assay; format: cell-based; conditions: Table 2; cAMP Hunter CHO-K1 GLP1R Gs cells; percent activity normalized to Exendin-4
Method: GLP-1R mediated agonist activity was determined using the cAMP Hunter CHO-K1 GLP1R Gs cell line (DiscoverX, cat# 95-0062C2), a stable CHO-K1 derived cell lines overexpressing naturally Gs coupled wild-type human GLP-1R (accession number: NM_002062.3). GLP-1R agonism in this cell line was detected by measuring cellular cAMP levels using the HitHunter cAMP assay kit (cat# 90-0075SM2), a homogenous, gain-of-signal competitive immune assay based on Enzyme Fragment Complementation (EFC) technology. In this system cellular cAMP competes with exogenous labeled cAMP (ED-cAMP) for binding to an anti-cAMP antibody. […] The luminescent signal is directly proportional to the amount of cellular cAMP.
For compound testing, cells were seeded in a total volume of 20 μL in white walled, 384-well microplates and incubated at 37° C. prior to compound testing. Prior to compound addition, cell culture media was removed by aspiration and replaced with 15 pt reagent buffer (2:1 HBSS/10 mM HEPES: cAMP XS+Ab reagent). Compounds were dissolved in DSMO and serially diluted (3-fold) prior to final dilution to 4X in assay buffer. Samples (5 μL) were added to cells and incubated at 37° C. for […] prior to 1 hour incubation with 20 pt cAMP XS+ED/CL lysis reagent and 3 hour incubation with 20 μL cAMP XS+EA reagent at room temperature. Microplates were read on a PerkinElmer Envision instrument. Compound activity was analyzed using CBIS data analysis suite (ChemInnovation). Percent activity was calculated based on duplicate assay runs and normalized to the positive control Exendin-4, a GLP-1R peptide agonist, using the following formula: […]
The effective compound concentration resulting in 50% response (EC50) was determined by non-linear regression analysis of dose-response curves.

Chain of human GLP-1R (P43220 24-463): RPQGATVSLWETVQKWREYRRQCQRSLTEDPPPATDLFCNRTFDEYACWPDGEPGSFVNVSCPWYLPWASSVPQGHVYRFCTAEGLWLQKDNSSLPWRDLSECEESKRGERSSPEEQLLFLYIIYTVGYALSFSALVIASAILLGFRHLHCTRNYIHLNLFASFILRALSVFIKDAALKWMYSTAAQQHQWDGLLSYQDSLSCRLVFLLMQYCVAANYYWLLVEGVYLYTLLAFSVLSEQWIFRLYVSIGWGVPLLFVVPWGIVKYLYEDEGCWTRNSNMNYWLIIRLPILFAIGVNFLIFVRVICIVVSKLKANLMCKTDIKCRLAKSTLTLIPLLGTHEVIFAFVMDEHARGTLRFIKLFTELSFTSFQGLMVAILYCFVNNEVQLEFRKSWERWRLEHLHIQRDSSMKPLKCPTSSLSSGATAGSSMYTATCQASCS

Row | SMILES | EC50
1 | O=C(O)c1ccc2nc(CN3CCN(c4cccc(OCc5ccccn5)n4)CC3)n(C[C@@H]3CCO3)c2c1 [Compound 40, (S)-1-(oxetan-2-ylmethyl)-2-((4-(6-(pyridin-2-ylmethoxy)pyridin-2-yl)piperazin-1-yl)methyl)-1H-benzo[d]imidazole-6-carboxylic acid] | 3.28 nM
2 | N#CC1(COc2cccc(N3CCN(Cc4nc5ccc(C(=O)O)cc5n4C[C@@H]4CCO4)CC3)n2)CCOCC1 [Compound 41, (S)-2-((4-(6-((4-cyanotetrahydro-2H-pyran-4-yl)methoxy)pyridin-2-yl)piperazin-1-yl)methyl)-1-(oxetan-2-ylmethyl)-1H-benzo[d]imidazole-6-carboxylic acid] | > 500 nM
3 | O=C(O)c1ccc2nc(CN3CCN(c4cccc(OCc5ccncc5)n4)CC3)n(C[C@@H]3CCO3)c2c1 [Compound 42, (S)-1-(oxetan-2-ylmethyl)-2-((4-(6-(pyridin-4-ylmethoxy)pyridin-2-yl)piperazin-1-yl)methyl)-1H-benzo[d]imidazole-6-carboxylic acid] | 3.84 nM
4 | O=C(O)c1ccc2nc(CN3CCN(c4cccc(OCC5CC6(COC6)C5)n4)CC3)n(C[C@@H]3CCO3)c2c1 [Compound 43, (S)-2-((4-(6-((2-oxaspiro[3.3]heptan-6-yl)methoxy)pyridin-2-yl)piperazin-1-yl)methyl)-1-(oxetan-2-ylmethyl)-1H-benzo[d]imidazole-6-carboxylic acid] | > 500 nM
5 | O=C(O)c1ccc2nc(CN3CCN(c4cccc(OCCC5CCCCC5)n4)CC3)n(C[C@@H]3CCO3)c2c1 [Compound 44, (S)-2-((4-(6-(2-cyclohexylethoxy)pyridin-2-yl)piperazin-1-yl)methyl)-1-(oxetan-2-ylmethyl)-1H-benzo[d]imidazole-6-carboxylic acid] | 82.1 nM
6 | O=C(O)c1ccc2nc(CN3CCN(c4cccc(OC5(c6ccccc6)COC5)n4)CC3)n(C[C@@H]3CCO3)c2c1 [Compound 45, (S)-1-(oxetan-2-ylmethyl)-2-((4-(6-((3-phenyloxetan-3-yl)oxy)pyridin-2-yl)piperazin-1-yl)methyl)-1H-benzo[d]imidazole-6-carboxylic acid] | 21.7 nM
7 | O=C(O)c1ccc2nc(CN3CCN(c4cccc(OCC5CCC6(CC5)COC6)n4)CC3)n(C[C@@H]3CCO3)c2c1 [Compound 46, (S)-2-((4-(6-((2-oxaspiro[3.5]nonan-7-yl)methoxy)pyridin-2-yl)piperazin-1-yl)methyl)-1-(oxetan-2-ylmethyl)-1H-benzo[d]imidazole-6-carboxylic acid] | > 500 nM
8 | O=C(O)c1ccc2nc(CN3CCN(c4cccc(OCC5COC5)n4)CC3)n(C[C@@H]3CCO3)c2c1 [Compound 47, (S)-1-(oxetan-2-ylmethyl)-2-((4-(6-(oxetan-3-ylmethoxy)pyridin-2-yl)piperazin-1-yl)methyl)-1H-benzo[d]imidazole-6-carboxylic acid] | > 500 nM
9 | O=C(O)c1ccc2nc(CN3CCN(c4cccc(OCC5CC6(CCOCC6)C5)n4)CC3)n(C[C@@H]3CCO3)c2c1 [Compound 48, (S)-2-((4-(6-((7-oxaspiro[3.5]nonan-2-yl)methoxy)pyridin-2-yl)piperazin-1-yl)methyl)-1-(oxetan-2-ylmethyl)-1H-benzo[d]imidazole-6-carboxylic acid] | > 500 nM
10 | O=C(O)c1ccc2nc(CN3CCN(c4cccc(OC5CCC6(CCC6)CC5)n4)CC3)n(C[C@@H]3CCO3)c2c1 [Compound 49, (S)-1-(oxetan-2-ylmethyl)-2-((4-(6-(spiro[3.5]nonan-7-yloxy)pyridin-2-yl)piperazin-1-yl)methyl)-1H-benzo[d]imidazole-6-carboxylic acid] | > 500 nM
11 | O=C(O)c1ccc2nc(CN3CCN(c4cccc(OCC5CC(F)(F)C5)n4)CC3)n(C[C@@H]3CCO3)c2c1 [Compound 50, (S)-2-((4-(6-((3,3-difluorocyclobutyl)methoxy)pyridin-2-yl)piperazin-1-yl)methyl)-1-(oxetan-2-ylmethyl)-1H-benzo[d]imidazole-6-carboxylic acid] | 202 nM
12 | O=C(O)c1ccc2nc(CN3CCN(c4cccc(OC5(c6ccccc6)CCC5)n4)CC3)n(C[C@@H]3CCO3)c2c1 [Compound 51, (S)-1-(oxetan-2-ylmethyl)-2-((4-(6-(1-phenylcyclobutoxy)pyridin-2-yl)piperazin-1-yl)methyl)-1H-benzo[d]imidazole-6-carboxylic acid] | 348 nM
13 | CS(=O)(=O)N1CCC(COc2cccc(N3CCN(Cc4nc5ccc(C(=O)O)cc5n4C[C@@H]4CCO4)CC3)n2)CC1 [Compound 52, (S)-2-((4-(6-((1-(methylsulfonyl)piperidin-4-yl)methoxy)pyridin-2-yl)piperazin-1-yl)methyl)-1-(oxetan-2-ylmethyl)-1H-benzo[d]imidazole-6-carboxylic acid] | > 500 nM
14 | O=C(O)c1ccc2nc(CN3CCN(c4cccc(OCc5cccnc5)n4)CC3)n(C[C@@H]3CCO3)c2c1 [Compound 53, (S)-1-(oxetan-2-ylmethyl)-2-((4-(6-(pyridin-3-ylmethoxy)pyridin-2-yl)piperazin-1-yl)methyl)-1H-benzo[d]imidazole-6-carboxylic acid] | 7.7 nM
15 | O=C(O)c1ccc2nc(CN3CCN(c4cccc(OCC5CCS(=O)(=O)CC5)n4)CC3)n(C[C@@H]3CCO3)c2c1 [Compound 54, (S)-2-((4-(6-((1,1-dioxidotetrahydro-2H-thiopyran-4-yl)methoxy)pyridin-2-yl)piperazin-1-yl)methyl)-1-(oxetan-2-ylmethyl)-1H-benzo[d]imidazole-6-carboxylic acid] | > 500 nM
16 | O=C(O)c1ccc2nc(CN3CCN(c4cccc(NCc5ccccc5)n4)CC3)n(C[C@@H]3CCO3)c2c1 [Compound 55, (S)-2-((4-(6-(benzylamino)pyridin-2-yl)piperazin-1-yl)methyl)-1-(oxetan-2-ylmethyl)-1H-benzo[d]imidazole-6-carboxylic acid] | 42.3 nM

Further lines, results first:

Row | EC50 | SMILES
17 | > 500 nM | CS(=O)(=O)N1CC(COc2cccc(N3CCN(Cc4nc5ccc(C(=O)O)cc5n4C[C@@H]4CCO4)CC3)n2)C1 [Compound 56, (S)-2-((4-(6-((1-(methylsulfonyl)azetidin-3-yl)methoxy)pyridin-2-yl)piperazin-1-yl)methyl)-1-(oxetan-2-ylmethyl)-1H-benzo[d]imidazole-6-carboxylic acid]
18 | > 500 nM | N#Cc1ccc2c(c1)CN(c1cccc(N3CCN(Cc4nc5ccc(C(=O)O)cc5n4C[C@@H]4CCO4)CC3)n1)C2 [Compound 57, (S)-2-((4-(6-(5-cyanoisoindolin-2-yl)pyridin-2-yl)piperazin-1-yl)methyl)-1-(oxetan-2-ylmethyl)-1H-benzo[d]imidazole-6-carboxylic acid]
19 | 0.221 nM | O=C(O)c1ccc2nc(CN3CCN(c4cccc(OCc5ccc(Cl)cn5)n4)CC3)n(C[C@@H]3CCO3)c2c1 [Compound 58, (S)-2-((4-(6-((5-chloropyridin-2-yl)methoxy)pyridin-2-yl)piperazin-1-yl)methyl)-1-(oxetan-2-ylmethyl)-1H-benzo[d]imidazole-6-carboxylic acid]
20 | 228 nM | NC(=O)c1ccc2c(c1)CCN(c1cccc(N3CCN(Cc4nc5ccc(C(=O)O)cc5n4C[C@@H]4CCO4)CC3)n1)C2 [Compound 59, (S)-2-((4-(6-(6-carbamoyl-3,4-dihydroisoquinolin-2(1H)-yl)pyridin-2-yl)piperazin-1-yl)methyl)-1-(oxetan-2-ylmethyl)-1H-benzo[d]imidazole-6-carboxylic acid]
21 | 8.18 nM | N#Cc1ccc2c(c1)CCN(c1cccc(N3CCN(Cc4nc5ccc(C(=O)O)cc5n4C[C@@H]4CCO4)CC3)n1)C2 [Compound 60, (S)-2-((4-(6-(6-cyano-3,4-dihydroisoquinolin-2(1H)-yl)pyridin-2-yl)piperazin-1-yl)methyl)-1-(oxetan-2-ylmethyl)-1H-benzo[d]imidazole-6-carboxylic acid]
22 | > 500 nM | N#CC1(COc2cccc(N3CCN(Cc4nc5ccc(C(=O)O)cc5n4C[C@@H]4CCO4)CC3)n2)COC1 [Compound 61, (S)-2-((4-(6-((3-cyanooxetan-3-yl)methoxy)pyridin-2-yl)piperazin-1-yl)methyl)-1-(oxetan-2-ylmethyl)-1H-benzo[d]imidazole-6-carboxylic acid]
23 | 0.86 nM | N#Cc1ccc(COc2cccc(N3CCN(Cc4nc5ccc(C(=O)O)cc5n4C[C@@H]4CCO4)CC3)n2)nc1 [Compound 62, (S)-2-((4-(6-((5-cyanopyridin-2-yl)methoxy)pyridin-2-yl)piperazin-1-yl)methyl)-1-(oxetan-2-ylmethyl)-1H-benzo[d]imidazole-6-carboxylic acid]
24 | 54.5 nM | CN(Cc1ccc(C#N)cc1)c1cccc(N2CCN(Cc3nc4ccc(C(=O)O)cc4n3C[C@@H]3CCO3)CC2)n1 [Compound 63, (S)-2-((4-(6-((4-cyanobenzyl)(methyl)amino)pyridin-2-yl)piperazin-1-yl)methyl)-1-(oxetan-2-ylmethyl)-1H-benzo[d]imidazole-6-carboxylic acid]
